Assay results from ChEMBL document CHEMBL5604062, “ASAP - ZIKV NS2B-NS3 protease fluorescence dose response” (2024).
Several values for one entry are separate records, joined by “and”; a condition that tells them apart may be missing. Equal entries are not always repeated.

The compounds below were run against Nonstructural protein 3 (Zika virus, UniProt A0A024AXB9) (assay: Functional biochemical assay to identify treatments for viral infectious disease that targets Zika NS2B-NS3 protease. Utilizing a direct enzyme activity measurement method, reading the fluorescence intensity is used to characterize the relative potency of inhibitors as IC50.).
Design: species or system PRVABC59

Chain of Nonstructural protein 3 (A0A024AXB9 whole entry): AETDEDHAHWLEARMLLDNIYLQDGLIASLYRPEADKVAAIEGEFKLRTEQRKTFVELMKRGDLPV

SMILES | IC50
Cc1nnsc1CN1CCC([C@@H](NC(=O)OCc2ccccc2)C(=O)Nc2cccc(CN)c2)CC1 | > 99.5 µM
NCc1ccc(C[C@H](NC(=O)OCc2ccccc2)C(=O)Nc2cccc(CN)c2)cc1 | 33.4 µM
CCc1cccc2c(CN3CCC(c4cscn4)CC3)c[nH]c12 | > 99.5 µM
c1ccc2sc(C3CCN(CCc4c[nH]c5ccccc45)CC3)nc2c1 | > 99.5 µM
C[C@@H]1C[C@H](NS(=O)(=O)c2ccc(Cl)cc2C(=O)O)C[C@H](C)N1Cc1ccccc1 | > 99.5 µM
c1cc(-c2nnc(NCc3nnn[nH]3)s2)no1 | > 99.5 µM
NCc1cccc(NC(=O)[C@@H](NC(=O)OCc2ccccc2)c2cc(F)cc(F)c2)c1 | > 99.5 µM
c1ccc2c(CN3CCC(c4cscn4)CC3)c[nH]c2c1 | 22.1 µM
CN1CC[C@H](C2CCN(S(=O)(=O)c3cc(F)cc(C(=O)O)c3)CC2)C1 | > 99.5 µM
NCc1ccncc1NS(=O)(=O)c1ccc(Oc2ccccc2Cl)cc1 | 94.2 µM
CCS(=O)(=O)N[C@@H](C(=O)Nc1cccc(CN)c1)c1ccc(OCc2ccccc2)cc1 | > 99.5 µM
Nc1ccc(CNC(=O)[C@@H](NC(=O)OCc2ccccc2)c2ccc(OCc3ccccc3)cc2)nc1 | > 99.5 µM
CCn1c(=O)c(N2CC[C@H](c3nncs3)C2)nc2ccccc21 | > 99.5 µM
NCc1cccc(CNC(=O)[C@@H](NC(=O)OCc2ccccc2)c2ccc(OCc3ccccc3)cc2)c1 | 19 µM and 11.6 µM
c1csc(CSc2nnc(Cn3cncn3)o2)c1 | > 99.5 µM
NCc1cccc(NC(=O)c2ccc(OCC(F)(F)F)c(NC(=O)OCc3ccccc3)c2)c1 | 48.7 µM
NCc1cccc(NC(=O)[C@@H](NC(=O)OCc2ccccc2)c2c(F)cccc2F)c1 | > 99.5 µM
Cc1ccc(NC(=O)OC(C)(C)C)c2[nH]cc(CN3CCC(c4cscn4)CC3)c12 | > 99.5 µM
CCCOc1ccc2[nH]cc(CN3CCC(c4cscn4)CC3)c2c1 | > 99.5 µM
COCCNC(=O)[C@H](Nc1cccc([C@H]2CCOC2)c1)c1cc(Br)cc2[nH]ccc12 | > 25 µM
O=C(NC[C@H]1CCOC1)c1cc(Cl)ccc1NS(=O)(=O)c1ccc(Oc2ccccc2Cl)cc1 | > 99.5 µM
O=C(O)CN(c1ccc(Cl)cc1)S(=O)(=O)c1ccc(Oc2ccccc2Cl)cc1 | > 99.5 µM
CCn1c(=O)c(N2CCC[C@H]2CN2CCCC2)nc2ccccc21 | > 99.5 µM
NC1CN(c2ccc(NS(=O)(=O)c3ccc(Oc4ccccc4Cl)cc3)cn2)C1 | > 99.5 µM
COc1ncccc1S(=O)(=O)N[C@H](C(=O)Nc1cccc(CN)c1)c1ccc(OCc2ccccc2)cc1 | > 99.5 µM

Other lines, results leading:

IC50 | SMILES
> 99.5 µM | CN(C)CCNC(=O)[C@H](Nc1cccc(-c2nn[nH]n2)c1)c1cc(Cl)cc(NC(=O)OCc2ccccc2)c1
> 99.5 µM | CC(=O)NCc1cccc(NC(=O)c2cc(Cl)cc(NC(=O)OCc3ccccc3)c2)c1
13.8 µM | NCc1cc(C(=O)N2CCOCC2)cc([C@@H]2C[C@H]2c2cc(Cl)cc(NC(=O)OCc3ccccc3)c2)c1
0.079 µM and 0.05 µM | O=C(NCCOCC1CC1)[C@H](Nc1ccc2c(c1)CNC2)c1cc(Cl)cc(C2CC2)c1
> 99.5 µM | Cc1cc(C(=O)Nc2cccc(CN)c2)cc(NCC(F)(F)F)n1
2.61 µM | N#C[C@H](Nc1ccc2c(c1)CNC2)c1cccc2[nH]ncc12
> 99.5 µM | COc1ccc(-c2cc(NS(=O)(=O)c3ccc(Cl)cc3C(=O)O)ccc2OC)cc1
8.51 µM | N[C@H]1CC[C@H](c2ccc(NC(=O)c3cc(Cl)cc4[nH]ncc34)cc2)C1
48 µM | O=C(O)c1cc(Cl)ccc1S(=O)(=O)Nc1ccc(Oc2ccccc2Cl)cc1
31.7 µM | COC(=O)c1cc(CN)cc([C@@H]2C[C@H]2c2cc(Cl)cc(NC(=O)OCc3ccccc3)c2)c1
0.354 µM | Nc1cc(Cl)cc(C(=O)Nc2ccc3c(c2)CNC3)c1N
> 99.5 µM | O=C(Nc1ccc2c(c1)CNC2)c1ncnc2sccc12
> 25 µM | Cc1c(C(=O)Nc2cccc(-c3cncnc3O)c2)cc(C2CC2)n1C
14.6 µM | C[C@@H](N)c1ccc(NC(=O)c2cc(Cl)cc(NC(=O)OCc3ccccc3)c2)cc1
> 25 µM | NCc1cc(Cl)cc(C(=O)Nc2cc([C@H]3CCOC3)ccn2)c1
